One series has as its system fish. To be noted: 96 hr LC50 (fish); binary mixtures: worse actor; cited from earlier work.
The conditions of series [1]: NOEC or ECx; binary mixtures: worse actor; cited from earlier work.
For series [2] the following is noted: binary mixtures: worse actor; cited from earlier work.
For series [3] the following is noted: binary mixtures: score of the worse actor of the two; cited from earlier work.
For series [4] the following is noted: binary mixtures: worse actor; cited from earlier work. The source holds these as a separate data set.
The conditions of series [5]: binary mixtures: score of the worse actor of the two; cited from earlier work. This is another data set of the same source.
For series [6] the following is noted: specific target organ toxicity, single exposure; binary mixtures: worse actor; cited from earlier work.
For series [7] the following is noted: binary mixtures: score of the worse actor of the two; cited from earlier work. The source holds these as a separate data set.
Series [8] in a line: Switching behaviour of ASHS systems under elevated pressures of CO2. As to conditions: EHA:NaOH:H2O combinations that did not become biphasic upon 1 bar of CO2. The format is physicochemical.
Experimental: The sight gauge was kept at a constant temperature (20° C.) in a water bath. The solutions were maintained under stirring due to a magnetic stir bar controlled by a magnetic stir plate. To maximize the stirring, the vessel was placed on its side (horizontal position). The mixture was then pressurized to 10 bar of CO2 in the sight gauge. In order to determine the volume of the phases obtained, measurements of the height of the water-rich and the carboxylic acid phase were obtained using a cathetometer while the vessel was in a vertical position. The relationship between height and internal volume on the sight gauge is known. The vessel was then slowly depressurized. The phases were collected using a glass pipette.
The nature of series [9]: Evaluation of the switching behaviour of ASHS systems (carboxylic acid/base/water) under air and 1 bar of CO2. Format: physicochemical. As to conditions: for Behaviour of the system after CO2 addition / pH under 1 bar of CO2 / pH under air: 20° C. As to the method:
Base solutions were prepared by combining the desired base and water (mass for components measured in an analytical scale) into either a 10 or 25 mL graduated cylinder (containing a magnetic stir bar) depending on the final volume of the mixture obtained. The carboxylic acid (mass measured using an analytical balance prior to addition) being studied was added to the base solution, and the mixture was mixed with the help of a magnetic stir plate. The amount of base and water used were selected based on the acid:base:water ratio desired. Experiments were carried out using stoichiometric and substoichiometric amounts of the base relative to the number of mols of acid added. In addition, the quantity of water used was adjusted based on the acid:water mass ratio desired. A typical experiment would contain 1 g of the carboxylic acid; between 0.4 and 1 mol of base per mol of acid; and a water mass varying from 1 to 9.5 g.
During a typical experiment, CO2 would be added for approximately 2 h at atmospheric pressure. At the end of the 2 h, the sparge tube would be removed, and the number and volume of the phases obtained would be recorded. The pH was once again recorded. For mixtures with only 1 phase, the pH of that phase was recorded. While for mixtures with 2 phases, the pH of the aqueous phase was recorded.
In the systems in which the base:acid mole ratio and the water:acid mass ratio were being studied, a slight modification from this method was used. The acid being tested (1 g) was mixed with 1 g of water and the required amount of NaOH (based on the acid:base molar ratio desired) to prepare the mixture. […]
The base solution was then added to the carboxylic acid, and the next steps followed the procedure previously described.

For series [10] the following is noted: EHA as solvent.
The mark [11] stands for this setting: base 3DMAP, base:acid mole ratio 0.50:1, H2O:acid mass ratio 2.5:1.
The mark [12] stands for this setting: base DMEA, base:acid mole ratio 0.55:1, H2O:acid mass ratio 2.5:1.
[13] abbreviates: base Jeffamine D-230 (two moles acid per mole D-230), H2O:acid mass ratio 12:1.
Setting [14] is: base Jeffamine D-230 (two moles acid per mole D-230), H2O:acid mass ratio 15:1.
[15] abbreviates: base MDEA, base:acid mole ratio 0.55:1, H2O:acid mass ratio 2.5:1.
Where [16] appears, read: base TEA, MDEA, DMEA or 3-DMAP, base:acid mol ratio 1:1, H2O:acid mass ratio 1:1.
[17] abbreviates: base TEA, MDEA, DMEA or 3-DMAP, base:acid mol ratio 1:1, H2O:acid mass ratio 2:1.
The mark [18] stands for this setting: base TEA, MDEA, DMEA or 3-DMAP, base:acid mol ratio 1:1, H2O:acid mass ratio 6:1.
[19] abbreviates: base TEA, MDEA, DMEA or 3-DMAP, base:acid mol ratio 1:1, H2O:acid mass ratio 15:1.
The mark [20] stands for this setting: base TEA, base:acid mole ratio 0.55:1, H2O:acid mass ratio 2.5:1.
Where [21] appears, read: substoichiometric aqueous NaOH, 0.6 to 0.7 equivalents of base.

Molecules are shown by their SMILES.

With `CCCCN(CCO)CCCC` [Bu2NCH2CH2OH, N,N-dibutylethanolamine], the “Acute aquatic toxicity, GHS category” value with fish is listed as 3 (category 3 (H402) means 10 < 96 hr LC50 (fish) ≤ 100 mg/L). The “Chronic aquatic toxicity, GHS category” value in [1] is 3 (category 3 (H412) means 0.1 < NOEC or ECx ≤ 1). Moreover, in series [2], the “Eye irritation, GHS category” value is on record as 1. Further, the “Acute toxicity (oral), GHS category” value in series [3] was 4 (category 4 (H302) means 300 < LD50 ≤ 2000 mg/kg). Further, the “Skin irritation, GHS category” value in series [4] was 1C. In addition, the “Acute toxicity (dermal), GHS category” value in series [5] is listed as 4 (category 4 (H312) means 1000 < LD50 ≤ 2000 mg/kg). For the same compound, the “Organ toxicity, GHS category” value in [6] is on record as 3.
Turning to `CN(C)C1CCCCC1` [CyNMe2], in the series on fish, the “Acute aquatic toxicity, GHS category” value is listed as 1 (Category 1 (H400) means 96 hr LC50 (fish) ≤ 1.0 mg/L). The “Acute toxicity (inhalation), GHS category” value in series [7] is reported as 3 (category 3 (H331) means 2 < LC50 ≤ 10 mg/L). Moreover, the “Acute toxicity (oral), GHS category” value in series [3] is listed as 3 (Category 3 (H301) means 50 < LD50 ≤ 300 mg/kg). The “Acute toxicity (dermal), GHS category” value in series [5] was 3 (Category 3 (H311) means 200 < LD50 ≤ 1000 mg/kg).
Regarding `CCCCC(CC)C(=O)O` (centres unmarked) [EHA, 2-ethylhexanoic acid], the “Behaviour upon the addition of 10 bar of CO2” value in series [8] is recorded as “successful switchable behaviour”. Moreover, the “pH before the addition of CO2” value worked out at 7.2 in [9] (0.8:1 NaOH:EHA mole ratio, 3:1 H2O:EHA mass ratio); 7.5 in series [9] (0.9:1 NaOH:EHA mole ratio, 1:1 H2O:EHA mass ratio); 7.2 in series [9] (0.9:1 NaOH:EHA mole ratio, 3:1 H2O:EHA mass ratio); 7.1 in series [9] (0.9:1 NaOH:EHA mole ratio, 4:1 H2O:EHA mass ratio); 7.2 in series [9] (0.9:1 NaOH:EHA mole ratio, 5:1 H2O:EHA mass ratio). For the same compound, the “Behaviour of the system” value in series [9] (0.8:1 NaOH:EHA mole ratio, 3:1 H2O:EHA mass ratio, 1 bar CO2) is “did not present a switchable behaviour”; in [9] (0.9:1 NaOH:EHA mole ratio, 5:1 H2O:EHA mass ratio, 1 bar CO2), “presented a switchable behaviour”; in series [9] (0.9:1 NaOH:EHA mole ratio, H2O:EHA mass ratio from 1:1 to 3:1, 1 bar of CO2), “do not present a switchable behaviour”; in [9] (0.9:1 NaOH:EHA mole ratio, extra water beyond 4:1 H2O:EHA mass ratio), “become biphasic under air”; in [9] (2.5:1 H2O:EHA mass ratio, 0.65 NaOH:EHA mol ratio, 1 bar CO2), “switchable behaviour”; in series [9] (2.5:1 H2O:EHA mass ratio, 0.70 NaOH:EHA mol ratio, 1 bar CO2), “remains monophasic after CO2 addition”. Besides, the “Behaviour of the system” value is “phase switchable behaviour was not observed” in series [9] (base NH4OH, 2:1 H2O:acid mass ratio, 1 bar CO2); “successful switchable behaviour” in series [9] (base NaOH, 2:1 H2O:acid mass ratio, 1 bar CO2, narrow range of base:acid ratio); “Switchable” in [9] (base NaOH, carboxylic acid:H2O mass ratio 1:2.5, carboxylic acid:NaOH mol ratio 1:0.6); “the acid remains as a separate phase under air” in [9] (base pyridine, 2:1 H2O:acid mass ratio). In addition, in series [9] (0.9:1 NaOH:EHA mole ratio, more water than 4:1, pH decreases from 7.1), the “pH under air, lowest value once extra water is added” value is on record as 6.6. Moreover, the “Behaviour of the system after CO2 addition” value in [9] (base 3DMAP, base:acid mole ratio 0.50:1, H2O:acid mass ratio 2.5:1, 1 bar CO2, threshold 50 vol % recovered) is recorded as “Phase separation above 50”; in [9] (base DMEA, base:acid mole ratio 0.55:1, H2O:acid mass ratio 2.5:1, 1 bar CO2, threshold 50 vol % recovered) it was “Phase separation above 50”; in series [9] (base Jeffamine D-230 (two moles acid per mole D-230), H2O:acid mass ratio 12:1, 1 bar CO2, partial = acid recovered smaller than mass added), “Partial phase separation”; in series [9] (base Jeffamine D-230 (two moles acid per mole D-230), H2O:acid mass ratio 15:1, 1 bar CO2, partial = acid recovered smaller than mass added), “Partial phase separation”; in series [9] (base MDEA, base:acid mole ratio 0.55:1, H2O:acid mass ratio 2.5:1, 1 bar CO2, threshold 50 vol % recovered) it was “No phase separation”; in series [9] (base TEA, MDEA, DMEA or 3-DMAP, base:acid mol ratio 1:1, H2O:acid mass ratio 1:1, 1 bar CO2) it was “No phase separation”. For the same compound, the “Behaviour of the system after CO2 addition” value in [9] (base TEA, MDEA, DMEA or 3-DMAP, base:acid mol ratio 1:1, H2O:acid mass ratio 2:1, 1 bar CO2) was “No phase separation”; in [9] (base TEA, MDEA, DMEA or 3-DMAP, base:acid mol ratio 1:1, H2O:acid mass ratio 6:1, 1 bar CO2), “No phase separation”; in series [9] (base TEA, MDEA, DMEA or 3-DMAP, base:acid mol ratio 1:1, H2O:acid mass ratio 15:1, 1 bar CO2) it was “No phase separation”; in [9] (base TEA, base:acid mole ratio 0.55:1, H2O:acid mass ratio 2.5:1, 1 bar CO2), “No phase separation”. In addition, the “pH under 1 bar of CO2” value in series [9] (setting [11]) was 6.64; in [9] (setting [12]) it was 6.69; in series [9] (setting [13]), 6.94; in series [9] (setting [14]) it was 6.74; in [9] (setting [15]), 6.61; in series [9] (setting [16]), 7.50-8.05. The “pH under 1 bar of CO2” value is on record as 7.20-7.60 in series [9] (setting [17]), 6.20-6.70 in series [9] (setting [18]), 6.60-6.80 in series [9] (setting [19]) and 6.53 in [9] (setting [20]). The pH under air in series [9] (setting [11]) is 6.53; in series [9] (setting [12]), 6.57; in series [9] (setting [13]), 6.98; in [9] (setting [14]) it was 8.34; in series [9] (setting [15]) it was 6.50; in [9] (setting [16]) it was 7.50-8.30. The pH under air in [9] (setting [17]) is listed as 8.00-8.15; in series [9] (setting [18]), 7.50-8.10; in [9] (setting [19]), 6.80-7.90; in series [9] (setting [20]), 6.48. Further, the “Phase behaviour upon addition of 1 bar of CO2” value in [9] (base Jeffamine D-230, TEA, MDEA, DMEA or 3DMAP, base:acid mole ratio 1:1, water:acid mass ratio 15:1 and other ratios) was “no phase separation was observed”. The “Phase behaviour upon addition of CO2” value in series [9] (setting [21]) was “phase separation was observed”. In addition, the Phases under air entry in [9] (setting [21]) is “one phase”. Besides, the “maximum EPS loading that still allows the next steps” value in series [10] turned out to be 5 wt %.

(Values after patent US12605653B2, “Anionic switchable hydrophilicity solvents” (QUEEN'S UNIVERSITY AT KINGSTON, priority 2022, dated 2026).)
